Results on 14 molecules are retold here after US10316056B2, “Chemical compounds and use thereof for improving muscular quality” (BIOPHYTIS, priority 2014, dated 2019).

For this assay, the system named is myostatin gene expression in C2C12 cells. The experiment in a line: Inhibition of myostatin expression in C2C12 cells (qPCR). In kind it is cell-based. The conditions noted are these: Mus musculus, percentage myostatin gene expression in cells in contact with the compounds related to control cells, C2C12, 6 h. The protocol: After several experiments in which the C2C12 cells differentiated into myotubes were incubated in the presence of IGF-1 or 20E for 2 h 30 or 6 h, two screening tests were developed. Thus, the phosphorylation of the S6 protein kinase and the expression of the myostatin gene were studied in order to determine their modulation by a growth hormone or an ecdysone and to characterize these modulations from a statistical point of view. The C2C12 myoblast cells (ATCC CRL-1772) are seeded into 24-well plates at a density of 30 000 cells per well and cultured in a DMEM medium containing glucose in a proportion of 4.5 g/l and supplemented with fetal calf serum (10%) and with antibiotics (penicillin and streptomycin). Forty-eight hours later, the myoblasts are induced to differentiate by partial serum depletion (2% instead of 10%) for 5 days. The cells are then placed in a medium which is glucose-depleted (DMEM containing 1 g/l of glucose) and serum-free in the presence of the test molecules or of the references (100 ng/ml IGF-1 or 10 μ[…]) for 6 h. At the end of the experiment, the messenger RNAs (mRNAs) are extracted using the conventional methodology based on phenol and chloroform. Briefly, the cells are lysed in a Trizol solution (Sigma T9424) containing a strong acid and phenol. The mRNAs are separated from the proteins by addition of chloroform and then centrifugation. They are then precipitated from isopropanol and then suspended at a concentration of 1 μg/μl in an […] ultrapure water. 1 μg of mRNA is then converted by reverse transcription into complementary DNA by the AMV enzyme in the presence of a primer and of a mixture of nucleotides according to the protocol given by the supplier (Applied Biosystems 4368814). […] The qPCRs are carried out on a 7900HT Fast real-Time PCR detection system (Applied Biosystems). The programming conditions are standard and consist of 1 cycle at 95° C. for 15 min, followed by 40 cycles at 95° C. for 15 s and at 60° C. for 1 min and the program ends with a melt curve step between 60° C. and 95° C. […] Fluorescent probes bind to the double-stranded DNA and are fluorescent only once bound to the DNA. A fluorescence threshold is established by the machine's program. When the amount of DNA allows the fluorescent probe to exceed this threshold, a PCR cycle number, called “Ct” for “Cycle Threshold”, is obtained. It is this value which forms the basis of the calculations to quantify the DNA relatively. A ratio R is established between the amount of starting DNA of a sample and that of a control, which has not undergone treatment (i.e. […] R=2^-ΔΔCt).
In the case of `CC([C@H]1CC[C@@]2(O)C3=CC(=O)[C@@H]4C[C@@H](O)[C@@H](O)C[C@]4(C)C3CC[C@]12C)N(CC1CCCO1)C(=O)C1CC1` (stereo partly drawn) [Compound 47, N-(tetrahydrofuran-2-ylmethyl)-N-[1-[(2S,3R,5R,10R,13R,14S,17S)-2,3,14-trihydroxy-10,13-dimethyl-6-oxo-2,3,4,5,9,11,12,15,16,17-decahydro-1H-cyclopenta[a]phenanthren-17-yl]ethyl]cyclopropanecarboxamide], the mrna remaining at 10 µM is less than 70%. The molecule `C=CC(=O)N(CC1CCCO1)C(C)[C@H]1CC[C@@]2(O)C3=CC(=O)[C@@H]4C[C@@H](O)[C@@H](O)C[C@]4(C)C3CC[C@]12C` (stereo partly drawn) [Compound 48, N-(tetrahydrofuran-2-ylmethyl)-N-[1-[(2S,3R,5R,10R,13R,14S,17S)-2,3,14-trihydroxy-10,13-dimethyl-6-oxo-2,3,4,5,9,11,12,15,16,17-decahydro-1H-cyclopenta[a]phenanthren-17-yl]ethyl]prop-2-enamide] returned a mrna remaining at 10 µM of 71 to 85%. As for `COCCN(C(=O)c1cccs1)C(C)[C@H]1CC[C@@]2(O)C3=CC(=O)[C@@H]4C[C@@H](O)[C@@H](O)C[C@]4(C)C3CC[C@]12C` (stereo partly drawn) [Compound 53, N-(2-methoxyethyl)-N-[1-[(2S,3R,5R,10R,13R,14S,17S)-2,3,14-trihydroxy-10,13-dimethyl-6-oxo-2,3,4,5,9,11,12,15,16,17-decahydro-1H-cyclopenta[a]phenanthren-17-yl]ethyl]thiophene-2-carboxamide], the mrna remaining at 10 µM is less than 70%.

The molecule `COCC(=O)N(C1CC1)C(C)[C@H]1CC[C@@]2(O)C3=CC(=O)[C@@H]4C[C@@H](O)[C@@H](O)C[C@]4(C)C3CC[C@]12C` (stereo partly drawn) [Compound 54, N-cyclopropyl-2-methoxy-N-[1-[(2S,3R,5R,10R,13R,14S,17S)-2,3,14-trihydroxy-10,13-dimethyl-6-oxo-2,3,4,5,9,11,12,15,16,17-decahydro-1H-cyclopenta[a]phenanthren-17-yl]ethyl]acetacetamide] had a mrna remaining at 10 µM of less than 70%. Molecule `CC([C@H]1CC[C@@]2(O)C3=CC(=O)[C@@H]4C[C@@H](O)[C@@H](O)C[C@]4(C)C3CC[C@]12C)N(C(=O)c1ccc(C#N)cc1)C1CC1` (stereo partly drawn) [Compound 56, 4-cyano-N-cyclopropyl-N-[1-[(2S,3R,5R,10R,13R,14S,17S)-2,3,14-trihydroxy-10,13-dimethyl-6-oxo-2,3,4,5,9,11,12,15,16,17-decahydro-1H-cyclopenta[a]phenanthren-17-yl]ethyl]benzamide] gave a mrna remaining at 10 µM of 71 to 85%. The figure for `COCCN(C(=O)N1CCOCC1)C(C)[C@H]1CC[C@@]2(O)C3=CC(=O)[C@@H]4C[C@@H](O)[C@@H](O)C[C@]4(C)C3CC[C@]12C` (stereo partly drawn) [Compound 57, N-(2-methoxyethyl)-N-[1-[(2S,3R,5R,10R,13R,14S,17S)-2,3,14-trihydroxy-10,13-dimethyl-6-oxo-2,3,4,5,9,11,12,15,16,17-decahydro-1H-cyclopenta[a]phenanthren-17-yl]ethyl]morpholine-4-carboxamide] is 71 to 85%; for `COC(CN(C(=O)c1ccco1)C(C)[C@H]1CC[C@@]2(O)C3=CC(=O)[C@@H]4C[C@@H](O)[C@@H](O)C[C@]4(C)C3CC[C@]12C)OC` (stereo partly drawn) [Compound 60, N-(2,2-dimethoxyethyl)-N-[1-[(2S,3R,5R,10R,13R,14S,17S)-2,3,14-trihydroxy-10,13-dimethyl-6-oxo-2,3,4,5,9,11,12,15,16,17-decahydro-1H-cyclopenta[a]phenanthren-17-yl]ethyl]furan-2-carboxamide] it is 71 to 85%; for `COC(CN(C(=O)c1cccs1)C(C)[C@H]1CC[C@@]2(O)C3=CC(=O)[C@@H]4C[C@@H](O)[C@@H](O)C[C@]4(C)C3CC[C@]12C)OC` (stereo partly drawn) [Compound 64, N-(2,2-dimethoxyethyl)-N-[1-[(2S,3R,5R,10R,13R,14S,17S)-2,3,14-trihydroxy-10,13-dimethyl-6-oxo-2,3,4,5,9,11,12,15,16,17-decahydro-1H-cyclopenta[a]phenanthren-17-yl]ethyl]thiophene-2-carboxamide] it is less than 70%.

In the case of `COC(CN(C(=O)C1CC1)C(C)[C@H]1CC[C@@]2(O)C3=CC(=O)[C@@H]4C[C@@H](O)[C@@H](O)C[C@]4(C)C3CC[C@]12C)OC` (stereo partly drawn) [Compound 65, N-(2,2-dimethoxyethyl)-N-[1-[(2S,3R,5R,10R,13R,14S,17S)-2,3,14-trihydroxy-10,13-dimethyl-6-oxo-2,3,4,5,9,11,12,15,16,17-decahydro-1H-cyclopenta[a]phenanthren-17-yl]ethyl]cyclopropanecarboxamide], the mrna remaining at 10 µM was less than 70%. In turn, `CC([C@H]1CC[C@@]2(O)C3=CC(=O)[C@@H]4C[C@@H](O)[C@@H](O)C[C@]4(C)C3CC[C@]12C)N(CC(F)F)C(=O)C1CC1` (stereo partly drawn) [Compound 68, N-(2,2-difluoroethyl)-N-[1-[(2S,3R,5R,10R,13R,14S,17S)-2,3,14-trihydroxy-10,13-dimethyl-6-oxo-2,3,4,5,9,11,12,15,16,17-decahydro-1H-cyclopenta[a]phenanthren-17-yl]ethyl]cyclopropanecarboxamide] came in with a mrna remaining at 10 µM of less than 70%. The figure for `CC([C@H]1CC[C@@]2(O)C3=CC(=O)[C@@H]4C[C@@H](O)[C@@H](O)C[C@]4(C)C3CC[C@]12C)N(CC(F)F)C(=O)OC(C)(C)C` (stereo partly drawn) [Compound 71, Tert-butyl N-(2,2-difluoroethyl)-N-[1-[(2S,3R,5R,10R,13R,14S,17S)-2,3,14-trihydroxy-10,13-dimethyl-6-oxo-2,3,4,5,9,11,12,15,16,17-decahydro-1H-cyclopenta[a]phenanthren-17-yl]ethyl]carbamate] is less than 70%; for `CC([C@H]1CC[C@@]2(O)C3=CC(=O)[C@@H]4C[C@@H](O)[C@@H](O)C[C@]4(C)C3CC[C@]12C)N(Cc1cccnc1)C(=O)c1ccco1` (stereo partly drawn) [Compound 73, N-(3-pyridylmethyl)-N-[1-[(2S,3R,5R,10R,13R,14S,17S)-2,3,14-trihydroxy-10,13-dimethyl-6-oxo-2,3,4,5,9,11,12,15,16,17-decahydro-1H-cyclopenta(a)phenanthren-17-yl]ethyl]furan-2-carboxamide] it is 71 to 85%; for `COCCN(C(=O)C(C)C)C(C)[C@H]1CC[C@@]2(O)C3=CC(=O)[C@@H]4C[C@@H](O)[C@@H](O)C[C@]4(C)C3CC[C@]12C` (stereo partly drawn) [Compound 75, N-(2-methoxyethyl)-2-methyl-N-[1-[(2S,3R,5R,10R,13R,14S,17S)-2,3,14-trihydroxy-10,13-dimethyl-6-oxo-2,3,4,5,9,11,12,15,16,17-decahydro-1H-cyclopenta[a]phenanthren-17-yl]ethyl]propanamide] it is less than 70%. `COC(CN(C)C(C)[C@H]1CC[C@@]2(O)C3=CC(=O)[C@@H]4C[C@@H](O)[C@@H](O)C[C@]4(C)C3CC[C@]12C)OC` (stereo partly drawn) [Compound 79, (2S,3R,5R,10R,13R,14S,17S)-17-[1-(2,2-dimethoxyethyl(methyl)amino)ethyl]-2,3,14-trihydroxy-10,13-dimethyl-2,3,4,5,9,11,12,15,16,17-decahydro-1H-cyclopenta[a]phenanthren-6-one]: the mrna remaining at 10 µM was less than 70%.
